Where a name gives a salt, the structure may show the parent alone.
Molecular target: CK2A1 (CK2α/β) (Homo sapiens, UniProt P68400)
Assay: CK2 kinase assay, CK2A1 (CK2α/β)
Assay type: biochemical
Settings: Table A; read-out: CK2A1 (CK2α/β) (IC50)

CK2A1 (CK2α/β), sequence (P68400 whole entry, species assumed): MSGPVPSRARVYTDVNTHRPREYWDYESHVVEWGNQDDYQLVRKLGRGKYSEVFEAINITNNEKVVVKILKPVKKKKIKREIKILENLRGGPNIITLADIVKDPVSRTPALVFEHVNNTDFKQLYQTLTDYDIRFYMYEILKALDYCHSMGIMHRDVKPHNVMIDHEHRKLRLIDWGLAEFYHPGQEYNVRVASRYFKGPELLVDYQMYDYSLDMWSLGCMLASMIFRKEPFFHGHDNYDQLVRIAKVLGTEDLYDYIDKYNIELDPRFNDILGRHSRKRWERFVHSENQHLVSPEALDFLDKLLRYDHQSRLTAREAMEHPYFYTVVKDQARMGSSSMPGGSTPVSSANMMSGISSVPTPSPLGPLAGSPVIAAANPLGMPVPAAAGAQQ
CK2A1 (CK2α/β), sequence (P67870 whole entry partner, species assumed): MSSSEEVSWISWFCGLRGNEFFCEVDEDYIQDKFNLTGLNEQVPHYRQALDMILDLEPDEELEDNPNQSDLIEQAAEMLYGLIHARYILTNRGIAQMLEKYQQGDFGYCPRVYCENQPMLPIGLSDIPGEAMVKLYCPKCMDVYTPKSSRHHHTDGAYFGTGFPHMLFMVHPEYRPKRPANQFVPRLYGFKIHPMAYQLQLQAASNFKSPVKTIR

IC50 | Compound
1.4 nM | CCNc1nc(Nc2cc(C#N)cc(N3CC[C@@H](NC(=O)OC)[C@H](N[C@H](C)C(N)=O)C3)c2Cl)nn2c(C#N)cnc12 [Example 758, methl N-[(3R,4R)-3-{[(1S)-1-carbamoylethyl]amino}-1-(2-chloro-5-cyano-3-{[7-cyano-4-(ethylamino)imidazo[2,1-f][1,2,4]triazin-2-yl]amino}phenyl)piperidin-4-yl]carbamate]
3.59 nM | N#Cc1cc(Nc2nc(NC3CC3)c3ncc(C#N)n3n2)c(Cl)c(N2CCN(C3CCNC3=O)CC2)c1 (stereo not drawn) [Example 581, 2-({2-chloro-5-cyano-3-[4-(2-oxopyrrolidin-3-yl)piperazin-1-yl]phenyl}amino)-4-(cyclopropylamino)imidazo [2,1-f][1,2,4]triazine-7-carbonitrile]
1.87 nM | CC(c1cc(C#N)cc(Nc2nc(NC3CC3)c3ncc(C#N)n3n2)c1Cl)N1CCN(S(C)(=O)=O)CC1 (racemic) [Example 678]
2.48 nM | CC(CCc1cc(Cl)c(Nc2nc(NC3CC3)c3ncc(C#N)n3n2)cc1C#N)N1CCOCC1 (stereo not drawn) [Example 720, 2-((2-chloro-5-cyano-4-(3-morpholinobutyl)phenyl)amino)-4-(cyclopropylamino)imidazo[2,1-f][1,2,4]triazine-7-carbonitrile]
4.34 nM | COC[C@@H](O)CN1CCN(c2cc(C#N)cc(Nc3nc(NC4CC4)c4ncc(C#N)n4n3)c2Cl)CC1 [Example 602, 2-[(2-chloro-5-cyano-3-{4-[(2S)-2-hydroxy-3-methoxypropyl]piperazin-1-yl}phenyl)amino]-4-(cyclopropylamino)imidazo [2,1-f][1,2,4]triazine-7-carbonitrile]
2.34 nM | N#Cc1cc(Nc2nc(NC3CC3)c3ncc(C#N)n3n2)c(Cl)c([C@H]2CCC[C@@H](N3CC(F)C3)C2)c1 [Example 726, 2-({2-chloro-5-cyano-3-[(1S,3R)-3-(3-fluoroazetidin-1-yl)cyclohexyl]phenyl}amino)-4-(cyclopropylamino)imidazo [2,1-f][1,2,4]triazine-7-carbonitrile]
1.3 nM | CCNc1nc(Nc2cc(C#N)cc(N3CC[C@@H](NC(=O)OC)[C@@H](N(C)C4COC4)C3)c2Cl)nn2c(C#N)cnc12 [Example 751, methyl ((3S,4R)-1-(2-chloro-5-cyano-3-((7-cyano-4-(ethylamino)imidazo[2,1-f][1,2,4]triazin-2-yl)amino)phenyl)-3-(methyl(oxetan-3-yl)amino)piperidin-4-yl)carbamate]
2.7 nM | COC(=O)N[C@H]1CCN(c2cc(C#N)cc(Nc3nc(NC4CC4)c4ncc(C#N)n4n3)c2Cl)CC1NCC(C)(C)O (stereo in doubt) [Example 755, methyl N-[(3S,4S)-1-(2-chloro-5-cyano-3-{[7-cyano-4-(cyclopropylamino)imidazo [2,1-f][1,2,4]triazin-2-yl]amino}phenyl)-3-[(2-hydroxy-2-methylpropyl)amino]piperidin-4-yl]carbamate]
4.93 nM | COC(=O)N[C@H]1CCN(c2cc(C#N)cc(Nc3nc(NC4CC4)c4ncc(C#N)n4n3)c2Cl)CC1NC(C)C (stereo in doubt) [Example 752, methyl N-[(3R,4S)-1-(2-chloro-5-cyano-3-{[7-cyano-4-(cyclopropylamino)imidazo [2,1-f][1,2,4]triazin-2-yl]amino}phenyl)-3-[(propan-2-yl)amino]piperidin-4-yl]carbamate]

The remaining lines, values behind:

Compound | IC50
CCNc1nc(Nc2cc(C#N)cc(C3CCN(C4CN(C(C)=O)C4)CC3)c2Cl)nn2c(C#N)cnc12 [Example 356, 2-((3-(1-(1-acetyl-3-azetidinyl)-4-piperidinyl)-2-chloro-5-cyanophenyl)amino)-4-(ethylamino)imidazo [2,1-f][1,2,4]triazine-7-carbonitrile] | 0.72 nM
N#Cc1cc(Nc2nc(NC3CC3)c3ncc(C#N)n3n2)c(Cl)c(N2CCN(CC(O)CF)CC2)c1 (racemic) [Example 66, (+/−) 2-((2-chloro-5-cyano-3-(4-(3-fluoro-2-hydroxypropyl)-1-piperazinyl)phenyl)amino)-4-(cyclopropylamino) imidazo[2,1-f][1,2,4] triazine-7-carbonitrile] | 0.58 nM
N#Cc1cc(Nc2nc(NC3CC3)c3ncc(C#N)n3n2)c(Cl)c(N2CC[C@@H](NC(=O)CN3CCOCC3)[C@H](O)C2)c1 (racemic) [Example 183, (+/−)-N-((3R,4R)-1-(2-chloro-5-cyano-3-((7-cyano-4-(cyclopropylamino)imidazo[2,1-f][1,2,4]triazin-2-yl)amino)phenyl)-3-hydroxypiperidin-4-yl)-2-morpholinoacetamide] | 0.64 nM
CCNc1nc(Nc2cc(C#N)cc(CCCN3CCN(C)CC3)c2Cl)nn2c(C#N)cnc12 [Example 578, 2-((2-chloro-5-cyano-3-(3-(4-methylpiperazin-1-yl)propyl)phenyl)amino)-4-(ethylamino)imidazo[2,1-f][1,2,4]triazine-7-carbonitrile] | 0.99 nM
CC(C)OC(=O)N1CC(N2CCN(c3cc(C#N)cc(Nc4nc(NC5CC5)c5ncc(C#N)n5n4)c3Cl)CC2)C1 [Example 518, propan-2-yl 3-[4-(2-chloro-5-cyano-3-{[7-cyano-4-(cyclopropylamino)imidazo[2,1-f][1,2,4]triazin-2-yl]amino}phenyl)piperazin-1-yl]azetidine-1-carboxylate] | 10.3 nM
CC(O)C1(N2CCN(c3cc(C(F)F)cc(Nc4nc(NC5CC5)c5ncc(C#N)n5n4)c3Cl)CC2)COC1 (stereo not drawn) [Example 271, 2-((2-chloro-5-(difluoromethyl)-3-(4-(3-(1-hydroxyethyl)-3-oxetanyl)-1-piperazinyl)phenyl)amino)-4-(cyclopropylamino)imidazo[2,1-f][1,2,4]triazine-7-carbonitrile] | 1.22 nM
N#Cc1cc(Nc2nc(NC3CC3)c3ncc(C#N)n3n2)c(Cl)c(N2CCC(N[C@H]3COC[C@@H]3O)CC2)c1 (racemic) [Example 135, (+/−) 2-((2-chloro-5-cyano-3-(4-(((3S,4R)-4-hydroxytetrahydro-3-furanyl)amino)-1-piperidinyl)phenyl)amino)-4-(cyclopropylamino)imidazo [2,1-f][1,2,4]triazine-7-carbonitrile] | 0.68 nM
N#Cc1cc(Nc2nc(NC3CC3)c3ncc(C#N)n3n2)c(F)cc1OCCN1CCOCC1 [Example 416, 2-((5-cyano-2-fluoro-4-(2-morpholinoethoxy)phenyl)amino)-4-(cyclopropylamino)imidazo[2,1-f][1,2,4]triazine-7-carbonitrile] | 0.68 nM
N#Cc1cnc2c(NC3CC3)nc(Nc3cc(C(F)F)cc(N4CCC(NC5COC5)CC4)c3Cl)nn12 [Example 256, 2-((2-chloro-5-(difluoromethyl)-3-(4-(3-oxetanylamino)-1-piperidinyl)phenyl)amino)-4-(cyclopropylamino)imidazo[2,1-f][1,2,4]triazine-7-carbonitrile] | 0.75 nM
N#Cc1cc(Nc2nc(NC3CC3)c3ncc(C#N)n3n2)c(Cl)c(N2CCC(N[C@@H]3CCCC[C@H]3F)CC2)c1 (racemic) [Example 128, (+/−)2-(2-chloro-5-cyano-3-(4-((1R,2S)-2-fluorocyclohexylamino)piperidin-1-yl)phenylamino)-4-(cyclopropylamino)imidazo [1,2-f][1,2,4]triazine-7-carbonitrile] | 4.77 nM
COC(=O)N1CCC(c2cc(C#N)cc(Nc3nc(NC4CC4)c4ncc(C#N)n4n3)c2Cl)CC1 [Example 226, methyl 4-(2-chloro-5-cyano-3-((7-cyano-4-(cyclopropylamino)imidazo[2,1-f][1,2,4]triazin-2-yl)amino)phenyl)piperidine-1-carboxylate] | 0.48 nM
N#Cc1cc(CNCC2CC2)c(Cl)c(Nc2nc(NC3CC3)c3ncc(C#N)n3n2)c1 [Example 470] | 1.5 nM
CC1(N2CCC(Oc3cc(C#N)cc(Nc4nc(NC5CC5)c5ncc(C#N)n5n4)c3Cl)CC2)COC1 [Example 427, 2-((2-chloro-5-cyano-3-((1-(3-methyloxetan-3-yl)piperidin-4-yl)oxy)phenyl)amino)-4-(cyclopropylamino)imidazo[2,1-f][1,2,4]triazine-7-carbonitrile] | 0.78 nM
N#Cc1cc(Nc2nc(NC3CC3)c3ncc(C#N)n3n2)c(Cl)c(N2CC[C@@H](NC3COC3)[C@H](O)C2)c1 (racemic) [Example 301, (+/−)2-((2-chloro-5-cyano-3-((3R,4R)-3-hydroxy-4-(oxetan-3-ylamino)piperidin-1-yl)phenyl)amino)-4-(cyclopropylamino)imidazo[2,1-f][1,2,4]triazine-7-carbonitrile, HCl] | 0.72 nM
CCNc1nc(Nc2cc(C#N)cc(N3CCN(C4CCOC4)CC3)c2Cl)nn2c(C#N)cnc12 (racemic) [Example 103, (+/−) 2-((2-chloro-5-cyano-3-(4-(tetrahydro-3-furanyl)-1-piperazinyl)phenyl)amino)-4-(ethylamino)imidazo [2,1-f][1,2,4]triazine-7-carbonitrile] | 0.83 nM
N#Cc1cc(Nc2nc(NC3CC3)c3ncc(C#N)n3n2)c(Cl)c(N2CCN(C3CN(C(=O)CC(N)=O)C3)CC2)c1 [Example 519, 3-{3-[4-(2-chloro-5-cyano-3-{[7-cyano-4-(cyclopropylamino)imidazo[2,1-f][1,2,4]triazin-2-yl]amino}phenyl)piperazin-1-yl]azetidin-1-yl}-3-oxopropanamide] | 3.2 nM
CCNc1nc(Nc2cc(C#N)cc(N3CC[C@@H](NC[C@H](C)O)[C@H](O)C3)c2Cl)nn2c(C#N)cnc12 [Example 377, 2-((2-chloro-5-cyano-3-((3R,4R)-3-hydroxy-4-(((S)-2-hydroxypropyl)amino)piperidin-1-yl)phenyl)amino)-4-(ethylamino)imidazo[2,1-f][1,2,4]triazine-7-carbonitrile] | 0.61 nM
N#Cc1cc(Nc2nc(NC3CC3)c3ncc(C#N)n3n2)c(Cl)c(N2CCN(C3CN(C(=O)CCO)C3)CC2)c1 [Example 495, 2-[(2-chloro-5-cyano-3-{4-[1-(3-hydroxypropanoyl)azetidin-3-yl]piperazin-1-yl}phenyl)amino]-4-(cyclopropylamino)imidazo[2,1-f][1,2,4]triazine-7-carbonitrile] | 4.89 nM

Source: patent US9273057B2 (Bristol-Myers Squibb Company, priority 2012, dated 2016)
